# pIC50: −log10 of the molar value.
# System: A549
# Assay: Cytotoxicity against human A549 cells by SRB assay
# Assay type: functional, cell-based
row,Compound,pIC50
1,COC(=O)C1=C2Nc3c(OC)cccc3[C@@]23CCN2C[C@@H]([C@H](C)O)[C@@H]1C[C@H]23,4.94
2,C/C=C1/CN2CC[C@]34C(=C(C(=O)OC)[C@H]1C[C@H]23)Nc1ccccc14 [AKUAMMICINE],4.82
